Measured values published in article PMC4109893 (MedChemComm, 2014).
Like-named read-outs stand apart in the source and are kept apart here.

System: mammalian GPAT
Assay: GPAT inhibition in vitro
Type: biochemical
Conditions: for fold decrease in inhibition compared to corresponding linker-free analog: 15a vs 13d, 18b vs 12h; for IC50: read-out: IC50 (µM) ± SD; for fold increase in inhibitory activity compared to 1c: relative to 1c

Question: CCCCCCCCS(=O)(=O)Nc1cc(CCc2ccc(OC)cc2)ccc1C(=O)O [Compound 18b] was tested. Which “fold decrease in inhibition compared to corresponding linker-free analog” value did it give?
Answer: 3.2 fold

Question: CCCCCCCCS(=O)(=O)Nc1cc(-c2ccccc2O)ccc1C(=O)O [Compound 12k] was tested. Which IC50 (GPAT inhibition by 4-substituted derivatives (Table 1)) did it give?
Answer: 63.1 ± 5.5 µM

Question: With CCCCCCCCS(=O)(=O)Nc1ccccc1C(=O)O [Compound 1c, 2-(octanesulfonamido)benzoic acid] as the compound, how does the “inhibitory activity against GPAT (in words)” value (in vitro) read?
Answer: comparable to 1b

Question: Which IC50 (GPAT inhibition by 5-substituted derivatives (Table 2)) does the source give for CCCCCCCCS(=O)(=O)Nc1ccc(-c2ccccc2Cl)cc1C(=O)O [Compound 13a] here?
Answer: 14.4 ± 1.3 µM

Question: Which “fold increase in inhibitory activity compared to 1c” value does the source give for CCCCCCCCS(=O)(=O)Nc1cc(C(=O)c2ccc(-c3ccccc3)cc2)ccc1C(=O)O [Compound 14b, 4-([1,1'-biphenyl]-4-carbonyl)-2-(octanesulfonamido)benzoic acid] here?
Answer: 3 fold

Question: What about the “fold more potent inhibition compared to linker-free analog 13f” value (relative to 13f) of the same compound?
Answer: 2 fold

Question: How did the “fold increase in inhibitory activity compared to 1c” value turn out when CCCCCCCCS(=O)(=O)Nc1ccc(-c2ccccc2-c2ccccc2)cc1C(=O)O [Compound 13e] was run?
Answer: 2.5 fold

Question: Which “fold increase in inhibitory activity compared to 1c” value does the source give for CCCCCCCCS(=O)(=O)Nc1ccc(-c2ccc(CCCC)cc2)cc1C(=O)O [Compound 13d] here?
Answer: 2.9 fold

Question: How did the “fold increase in inhibitory activity compared to 1c” value turn out when CCCCCCCCS(=O)(=O)Nc1ccc(-c2cccc(Cl)c2)cc1C(=O)O [Compound 13b] was run?
Answer: 2.9 fold

Question: With CCCCCCCCS(=O)(=O)Nc1ccc(C(=O)c2ccc(CCCC)cc2)cc1C(=O)O [Compound 15a] as the compound, how does the “fold decrease in inhibition compared to corresponding linker-free analog” value read?
Answer: 3.5 fold
